According to patent publication US20250127162A1, “METHODS AND COMPOSITIONS FOR CONTROLLING PESTS IN RICE” (Globachem NV, priority 2022, published 2025):

How the values were obtained:
Type in all cases: in vivo
Chilo suppressalis = experiment: Rice field trials, control of Chilo suppressalis (Example 1, Trials 1-2, Spain); settings: Trial 2, 41 DAB, water volume 300 L/ha, applications AB, rate in treatment name
Procedure: (§1) All applications were made with an EC formulation containing 650 g/L of pelargonic acid (e.g., 685 g/L of 95% purity pelargonic acid), an anionic emulsifier and a branched fatty acid ester solvent.
Trials 1˜4 assessing the use of pelargonic acid for controlling Chilo suppressalis in rice were conducted in Spain and Thailand.
(§2) Application A was made to the crops at the beginning of infestations; for these trials, Stage BBCH 59; Application B was made 14 days after Application A.
(§3) Trial 1 was conducted in Spain using a water volume of 300 L/ha of water per application unless otherwise indicated. Pest Incidence/Number of Insects (PESINC) and Pest Severity (PESSEV) as a Percent of Untreated Check (% UNCK) as well as Phytotoxicity were assessed at various treatment evaluation intervals.
(§4) Trial 2 was conducted in Spain using a water volume of 300 L/ha of water per application unless otherwise indicated. Pest Incidence/Number of Insects (PESINC) and Pest Severity (PESSEV) as a Percent of Untreated Check (% UNCK) as well as Phytotoxicity were assessed at various treatment evaluation intervals.

Rice = experiment: Phytotoxicity on rice (Example 1, Trials 1-2, Spain); design: key: % leaf necrosis/discoloration vs untreated plants; settings: applications AB
From the text: “Low Phytotoxicity” of pelargonic acid, as used herein means that the toxic effect on plants is absent or at such a level so as not to adversely impact the growth and/or yield of the plant under a given set of test conditions, e.g., at a given concentration of pelargonic acid. Phytotoxic effects may be measured in a number of different ways, for example, according to the principals set out in OEPP/EPPO Bulletin (2014) 44 (3), 265-273 “PP 1/135 (4) Phytotoxicity assessment”. The phytotoxic effect on plants may be assessed visually as a function of the percentage of discoloration to the leaves and/or the appearance of necrosis. When the pelargonic acid compositions are applied to the foliage of the rice plants in accordance with the teachings herein, will typically result in a level of phytotoxicity of less than 20%, preferably less than 15%, more preferably less than 10% necrosis of the leaves in comparison to untreated plants. Preferred uses of the invention will typically result in phytotoxicity of 7% or less, whilst the most preferred uses will typically result in phytotoxicity of 5% or less. The above values are approximate as any purely visual assessment is likely to contain a degree of subjectivity.
as §1, §2, §3, §4

Diabrotica speciosa = experiment: Potato field trials, control of Diabrotica speciosa (Example 3); settings: 400 L water/ha, two applications 7 d apart, Actara 0.05 kg/ha
From the text: All applications were made with an EC formulation containing 650 g/L of pelargonic acid (e.g., 685 g/L of 95% purity pelargonic acid), an anionic emulsifier and a branched fatty acid ester solvent. […]. […] Potatoes—Diabrotica speciosa (Cucurbit beetle)-DIABSC [table] [table]

Q: Which “PESINC (Pest Incidence/Number of Insects) % UNCK” value (Chilo suppressalis; listed as PA 1300 g/ha) does the source give for `CCCCCCCCC(=O)O` [PA 650 g/ha, pelargonic acid] here?
A: 57.86 % UNCK

Q: What about the “PESINC (Pest Incidence/Number of Insects) % UNCK” value (Chilo suppressalis; listed as PA 2600 g/ha) of the same compound?
A: 67.86 % UNCK

Q: What about the Phytotoxicity (Rice; Trial 1 (PESINC table), water volume 150 L/ha) of the same compound?
A: 0

Q: What about the Phytotoxicity (Rice; Trial 1 (PESINC table), water volume 300 L/ha) of the same compound?
A: 0

Q: And the Phytotoxicity (Rice; Trial 1 (PESSEV table), water volume 150 L/ha)?
A: 0

Q: And the Phytotoxicity (Rice; Trial 1 (PESSEV table), water volume 300 L/ha)?
A: 0

Q: What about the Phytotoxicity (Rice; Trial 2 (PESINC table), water volume 150 L/ha) of the same compound?
A: 0

Q: And the Phytotoxicity (Rice; Trial 2 (PESINC table), water volume 300 L/ha)?
A: 0

Q: And the Phytotoxicity (Rice; Trial 2 (PESSEV table), water volume 150 L/ha)?
A: 0

Q: What about the Phytotoxicity (Rice; Trial 2 (PESSEV table), water volume 300 L/ha) of the same compound?
A: 0

Q: And the “# Insects, % UNCK” value (Diabrotica speciosa; Trial 1, potato, 3 DAA)?
A: 67.74b % UNCK

Q: What about the “# Insects, % UNCK” value (Diabrotica speciosa; Trial 1, potato, 3 DAA, listed as PA 487.5 g/ha) of the same compound?
A: 48.39ab % UNCK

Q: What about the “# Insects, % UNCK” value (Diabrotica speciosa; Trial 1, potato, 3 DAA, listed as PA 812.5 g/ha) of the same compound?
A: 64.52b % UNCK

Q: What about the “# Insects, % UNCK” value (Diabrotica speciosa; Trial 1, potato, 3 DAA, listed as PA 975 g/ha) of the same compound?
A: 74.19b % UNCK

Q: And the “# Insects, % UNCK” value (Diabrotica speciosa; Trial 1, potato, 3 DAB)?
A: 84.21c % UNCK

Q: And the “# Insects, % UNCK” value (Diabrotica speciosa; Trial 1, potato, 3 DAB, listed as PA 487.5 g/ha)?
A: 34.2b1 % UNCK

Q: And the “# Insects, % UNCK” value (Diabrotica speciosa; Trial 1, potato, 3 DAB, listed as PA 812.5 g/ha)?
A: 86.84c % UNCK

Q: And the “# Insects, % UNCK” value (Diabrotica speciosa; Trial 1, potato, 3 DAB, listed as PA 975 g/ha)?
A: 84.21c % UNCK

Q: And the “# Insects, % UNCK” value (Diabrotica speciosa; Trial 1, potato, 7 DAA)?
A: 55.88abc % UNCK

Q: And the “# Insects, % UNCK” value (Diabrotica speciosa; Trial 1, potato, 7 DAA, listed as PA 487.5 g/ha)?
A: 29.4ab % UNCK

Q: What about the “# Insects, % UNCK” value (Diabrotica speciosa; Trial 1, potato, 7 DAA, listed as PA 812.5 g/ha) of the same compound?
A: 61.76bc % UNCK

Q: And the “# Insects, % UNCK” value (Diabrotica speciosa; Trial 1, potato, 7 DAA, listed as PA 975 g/ha)?
A: 64.71bc % UNCK

Q: What about the “# Insects, % UNCK” value (Diabrotica speciosa; Trial 1, potato, 7 DAB) of the same compound?
A: 81.08b % UNCK

Q: And the “# Insects, % UNCK” value (Diabrotica speciosa; Trial 1, potato, 7 DAB, listed as PA 487.5 g/ha)?
A: 54.05b % UNCK

Q: And the “# Insects, % UNCK” value (Diabrotica speciosa; Trial 1, potato, 7 DAB, listed as PA 812.5 g/ha)?
A: 83.78b % UNCK

Q: And the “# Insects, % UNCK” value (Diabrotica speciosa; Trial 1, potato, 7 DAB, listed as PA 975 g/ha)?
A: 83.78b % UNCK

Q: And the “# Insects, % UNCK” value (Diabrotica speciosa; Trial 2, potato, 3 DAA)?
A: 61.90bc % UNCK

Q: What about the “# Insects, % UNCK” value (Diabrotica speciosa; Trial 2, potato, 3 DAA, listed as PA 487.5 g/ha) of the same compound?
A: 38.10b % UNCK

Q: What about the “# Insects, % UNCK” value (Diabrotica speciosa; Trial 2, potato, 3 DAA, listed as PA 812.5 g/ha) of the same compound?
A: 80.95cd % UNCK

Q: What about the “# Insects, % UNCK” value (Diabrotica speciosa; Trial 2, potato, 3 DAA, listed as PA 975 g/ha) of the same compound?
A: 95.24de % UNCK

Q: And the “# Insects, % UNCK” value (Diabrotica speciosa; Trial 2, potato, 3 DAB)?
A: 25.00ab % UNCK

Q: And the “# Insects, % UNCK” value (Diabrotica speciosa; Trial 2, potato, 3 DAB, listed as PA 487.5 g/ha)?
A: 25.00ab % UNCK

Q: What about the “# Insects, % UNCK” value (Diabrotica speciosa; Trial 2, potato, 3 DAB, listed as PA 812.5 g/ha) of the same compound?
A: 28.57b % UNCK

Q: And the “# Insects, % UNCK” value (Diabrotica speciosa; Trial 2, potato, 3 DAB, listed as PA 975 g/ha)?
A: 53.57c % UNCK

Q: What about the “# Insects, % UNCK” value (Diabrotica speciosa; Trial 2, potato, 7 DAA) of the same compound?
A: 38.10b % UNCK

Q: What about the “# Insects, % UNCK” value (Diabrotica speciosa; Trial 2, potato, 7 DAA, listed as PA 487.5 g/ha) of the same compound?
A: 23.81ab % UNCK

Q: What about the “# Insects, % UNCK” value (Diabrotica speciosa; Trial 2, potato, 7 DAA, listed as PA 812.5 g/ha) of the same compound?
A: 85.71c % UNCK

Q: And the “# Insects, % UNCK” value (Diabrotica speciosa; Trial 2, potato, 7 DAA, listed as PA 975 g/ha)?
A: 100.00d % UNCK

Q: And the “# Insects, % UNCK” value (Diabrotica speciosa; Trial 2, potato, 7 DAB)?
A: 87.50bc % UNCK

Q: What about the “# Insects, % UNCK” value (Diabrotica speciosa; Trial 2, potato, 7 DAB, listed as PA 487.5 g/ha) of the same compound?
A: 70.83b % UNCK

Q: And the “# Insects, % UNCK” value (Diabrotica speciosa; Trial 2, potato, 7 DAB, listed as PA 812.5 g/ha)?
A: 91.67c % UNCK

Q: And the “# Insects, % UNCK” value (Diabrotica speciosa; Trial 2, potato, 7 DAB, listed as PA 975 g/ha)?
A: 100.00c % UNCK

Q: What about the “# Insects, % UNCK” value (Diabrotica speciosa; Trial 2, potato, 10 DAB) of the same compound?
A: 86.96bc % UNCK

Q: What about the “# Insects, % UNCK” value (Diabrotica speciosa; Trial 2, potato, 10 DAB, listed as PA 487.5 g/ha) of the same compound?
A: 68.57b % UNCK

Q: And the “# Insects, % UNCK” value (Diabrotica speciosa; Trial 2, potato, 10 DAB, listed as PA 812.5 g/ha)?
A: 91.30c % UNCK

Q: What about the “# Insects, % UNCK” value (Diabrotica speciosa; Trial 2, potato, 10 DAB, listed as PA 975 g/ha) of the same compound?
A: 100.00c % UNCK
